Like-named read-outs stand apart in the source and are kept apart here. Where only a bound is given, the exact number is not on record here.

The test system of the experiment is SARS-CoV-2. The experiment in a line: microbe, parasite or virus in culture. As to conditions: read-out: EC50, μM (Hela). Format: cell-based.
The mark [1] stands for this setting: Severe acute respiratory syndrome coronavirus 2, HeLa-ACE2 cells infected with SARS-CoV-2, 24 h, immunofluorescence of infected cells.

The term EC50 denotes the concentration that produces a half-maximal response. For the compound `O=C(Nc1ccccc1F)C(=O)N1C[C@@H]2CCC[C@@H]2[C@H]1C(=O)N[C@@H](C[C@@H]1CCNC1=O)C(=O)CO` [Compound 30, (1S,3aR,6aS)-2-(2-((2-fluorophenyl)amino)-2-oxoacetyl)-N-((S)-4-hydroxy-3-oxo-1-((S)-2-oxopyrrolidin-3-yl)butan-2-yl)octahydrocyclopenta[c]pyrrole-1-carboxamide], the concentration giving a half-maximal response (EC50) under setting [1] fell in the range of 0.05 to 0.2 µM.

Consider `CC(C)(C)NC(=O)C(=O)N1C[C@@H]2CCC[C@@H]2[C@H]1C(=O)N[C@@H](C[C@@H]1CCNC1=O)C(=O)CO` [Compound 31, (1S,3aR,6aS)-2-(2-(tert-butylamino)-2-oxoacetyl)-N-((S)-4-hydroxy-3-oxo-1-((S)-2-oxopyrrolidin-3-yl)butan-2-yl)octahydrocyclopenta[c]pyrrole-1-carboxamide], for which the EC50 under setting [1] is greater than 1 µM.

Consider `CC(C)(C)NC(=O)C(=O)N1C[C@@H]2CCC[C@@H]2[C@H]1C(=O)N[C@@H](C[C@@H]1CCCNC1=O)C(=O)CO` [Compound 32, (1S,3aR,6aS)-2-(2-(tert-butylamino)-2-oxoacetyl)-N-((S)-4-hydroxy-3-oxo-1-((S)-2-oxopiperidin-3-yl)butan-2-yl)octahydrocyclopenta[c]pyrrole-1-carboxamide], for which the EC50 under setting [1] was 0.5 to 1 µM.

Regarding `O=C(Nc1ccccc1F)C(=O)N1C[C@@H]2CCC[C@@H]2[C@H]1C(=O)N[C@@H](C[C@@H]1CCCNC1=O)C(=O)CO` [Compound 33, (1S,3aR,6aS)-2-(2-((2-fluorophenyl)amino)-2-oxoacetyl)-N-((S)-4-hydroxy-3-oxo-1-((S)-2-oxopiperidin-3-yl)butan-2-yl)octahydrocyclopenta[c]pyrrole-1-carboxamide], the concentration for a half-maximal effect (EC50) under setting [1] is 0.05 to 0.2 µM.

As to `CC(C)C[C@H](NC(=O)C(=O)Nc1ccccc1F)C(=O)N[C@@H](C[C@@H]1CCCCNC1=O)C(=O)CO` [Compound 34, N^1-(2-fluorophenyl)-N^2-((S)-1-(((S)-4-hydroxy-3-oxo-1-((S)-2-oxoazepan-3-yl)butan-2-yl)amino)-4-methyl-1-oxopentan-2-yl)oxalamide], under setting [1], the EC50 was greater than 1 µM.

For the compound `COc1cccc2[nH]c(C(=O)N[C@@H](CC(C)C)C(=O)N[C@H](C=O)C[C@@H]3CCNC3=O)cc12` [Compound 35, 4-methoxy-N-((S)-4-methyl-1-oxo-1-(((S)-1-oxo-3-((S)-2-oxopyrrolidin-3-yl)propan-2-yl)amino)pentan-2-yl)-1H-indole-2-carboxamide], the EC50 under setting [1] was greater than 1 µM.

Take `CC1(C)[C@@H]2[C@@H](C(=O)N[C@H](C=O)C[C@@H]3CCNC3=O)N(C(=O)COc3ccc(OC(F)(F)F)cc3)C[C@@H]21` [Compound 36, (1R,2S,5S)-6,6-dimethyl-N-((S)-1-oxo-3-((S)-2-oxopyrrolidin-3-yl)propan-2-yl)-3-(2-(4-(trifluoromethoxy)phenoxy)acetyl)-3-azabicyclo[3.1.0]hexane-2-carboxamide]: the half-maximal effective concentration (EC50) (Severe acute respiratory syndrome coronavirus 2, HeLa-ACE2, 24 h) was 0.2 to 0.5 µM.

With `CC(C)C[C@H](NC(=O)C(=O)Nc1ccccc1)C(=O)N[C@H](C=O)C[C@@H]1CCNC1=O` [Compound 37, N^1-((S)-4-methyl-1-oxo-1-(((S)-1-oxo-3-((S)-2-oxopyrrolidin-3-yl)propan-2-yl)amino)pentan-2-yl)-N^2-phenyloxalamide], the concentration giving a half-maximal response (EC50) under setting [1] is greater than 1 µM.

`Cc1ccccc1NC(=O)C(=O)N[C@@H](CC(C)C)C(=O)N[C@H](C=O)C[C@@H]1CCNC1=O` [Compound 38, N^1-((S)-4-methyl-1-oxo-1-(((S)-1-oxo-3-((S)-2-oxopyrrolidin-3-yl)propan-2-yl)amino)pentan-2-yl)-N^2-(o-tolyl)oxalamide]: the 50% effective concentration (EC50) under setting [1] fell in the range of 0.05 to 0.2 µM.

For `CC(C)C[C@H](NC(=O)C(=O)Nc1ccccc1F)C(=O)N[C@H](C=O)C[C@@H]1CCNC1=O` [Compound 39, N^1-(2-fluorophenyl)-N^2-((S)-4-methyl-1-oxo-1-(((S)-1-oxo-3-((S)-2-oxopyrrolidin-3-yl)propan-2-yl)amino)pentan-2-yl)oxalamide], the EC50 under setting [1] was 0.05 to 0.2 µM.
